In patent US10696686B2, “Herbicidally active (alkynyl-phenyl)-substituted cyclic dione compounds and derivatives thereof” (Syngenta Limited, priority 2013, dated 2020):

Legend:
Experiment in all cases: Biological Example 3 glasshouse assay using various adjuvant systems, post-emergence foliar spray
Assay type in all cases: in vivo
[1] = system: Glycine max (GLXMA, soybean) cultivar TMG133
Procedure: (§1) Post-emergence foliar spray application, 200 L/ha, usually one or two replicates for the weeds (depending on application rate), and two replicates for soybean.
(§2) Standard warm conditions (tropical), in glasshouse. Specifically, the glasshouse bay conditions are 24° C./18° C. day/night; 16/8 hours light/dark; 65% humidity.
(§3) The herbicidal application takes place at the following growth stages for plants which include inter alia one or more of the following plants (usually the herbicidal application takes place on at least the following plants: DIGSA, ELEIN, SETFA, ZEAMX, GLXMA Nikko, and GLXMA TMG133, and often also either BRADC or BRAPP):
Glycine max (GLXMA, soybean) cultivar “TMG133”—which is Roundup Ready™ glyphosate-tolerant soybean cultivar TMG133 (typically available from Monsanto in Brazil)—growth stage: 1st trifoliate.
(§4) Each test compound is applied with one of the following adjuvant systems (all percentages are final concentrations in the aqueous spray mixture):
(§5) Adjuvant system 1: 0.5% v/v Adigor™ *, 1.0% v/v AMS (ammonium sulphate) and 12.5% v/v IPA (isopropyl alcohol).
(§6) Adjuvant system 1A: 0.5% v/v Adigor™ * and 12.5% v/v IPA (isopropyl alcohol).
(§7) CAS Registry no. 166412-78-8), and is usually available from BASF. “Isononyl” in this context is thought to mean a mixture of two or more branched isomers of C9H19. Method: Seeds of the weed (including volunteer) plants, typically including inter alia Digitaria sanguinalis (DIGSA), Eleusine indica (ELEIN), Setaria faberi (SETFA), Zea mays (ZEAMX, corn), and sometimes also [either Brachiaria decumbens (BRADC) or Brachiaria platyphylla (BRAPP)], are sown in seed trays (troughs) containing clay loam soil (pH 7.0, 2.2% organic matter, “Trough Mix A”); and soybean seed is sown in pots containing the same soil with 3 soybean seedlings per pot. The plants are sprayed with the test herbicide when they reach the growth stages mentioned above. The test herbicidal solutions are prepared by mixing the appropriate aliquots of the test substance(s) and one of the adjuvant systems indicated above *** in deionised water to give the desired treatment concentration. The herbicidal application is made as a foliar spray, using a tracksprayer. Following the herbicidal application, the plants are watered twice per day for the duration of the test. A visual assessment of the % herbicidal damage is made 7 and 14 Days After herbicide Application (DAA) (or, in a minority of cases, 7 and 15 DAA), and the results are recorded as % visual herbicidal damage where 0%=no damage to plants and 100%=plant totally killed. *** Adjuvant system=either Adigor™ or Hexamoll DINCH™ or tris-(2-ethylhexyl) phosphate each at 0.5% v/v, and 12.5% v/v IPA (isopropyl alcohol), and 1.0% v/v AMS (ammonium sulphate); or 0.5% v/v Adigor™ and 12.5% v/v IPA (isopropyl alcohol); all percentages are final concentrations in the aqueous spray mixture.
(§8) Compounds A8, A11 and A17, which are compounds of formula (I) according to the present invention, were tested in a test method substantially as described above.
(§9) Compound A8 was tested using the 0.5% v/v Adigor™+12.5% v/v IPA adjuvant system. Compounds A11 and A17 were tested using the 0.5% v/v Adigor™+1.0% v/v AMS+12.5% v/v IPA adjuvant system.
The percentages of herbicidal damage/plant control, at 14 Days After herbicide Application (DAA) (or, in a minority of cases, at 15 DAA), for the Compounds tested and for some of the plants tested, were in the following percentage ranges. […]

[2] = system: Eleusine indica (ELEIN); settings: 8 g/ha
Procedure: as §1, §2, §3
Eleusine indica (ELEIN)—growth stage 12 or 13
as §4, §5, §6
(§10) CAS Registry no. […] A visual assessment of the % herbicidal damage is made 7 and 14 Days After herbicide Application (DAA) (or, in a minority of cases, 7 and 15 DAA), and the results are recorded as % visual herbicidal damage where 0%=no damage to plants and 100%=plant totally killed. *** Adjuvant system=either Adigor™ or Hexamoll DINCH™ or tris-(2-ethylhexyl) phosphate each at 0.5% v/v, and 12.5% v/v IPA (isopropyl alcohol), and 1.0% v/v AMS (ammonium sulphate); or 0.5% v/v Adigor™ and 12.5% v/v IPA (isopropyl alcohol); all percentages are final concentrations in the aqueous spray mixture. […]
The percentages of herbicidal damage/plant control, at 14 Days After herbicide Application (DAA) (or, in a minority of cases, at 15 DAA), for the Compounds tested and for some of the plants tested, were in the following percentage ranges. […] Phytotoxicity on Glycine max (GLXMA, Soybean) Cultivar “TMG133” Glycine max (GLXMA, soybean) cultivar “TMG133” is Roundup Ready™ glyphosate-tolerant soybean cultivar TMG133, and is typically available from Monsanto in Brazil.

[3] = system: Digitaria sanguinalis (DIGSA); settings: 8 g/ha
Procedure: as §1, §2, §3
Digitaria sanguinalis (DIGSA)—growth stage 12 or 13
as §4, §5, §6, §10
The percentages of herbicidal damage/plant control, at 14 Days After herbicide Application (DAA) (or, in a minority of cases, at 15 DAA), for the Compounds tested and for some of the plants tested, were in the following percentage ranges. […] Phytotoxicity on Glycine max (GLXMA, Soybean) Cultivar “TMG133” Glycine max (GLXMA, soybean) cultivar “TMG133” is Roundup Ready™ glyphosate-tolerant soybean cultivar TMG133, and is typically available from Monsanto in Brazil. […]

[4] = system: Zea mays (ZEAMX, maize, corn) cultivar Garland; settings: 8 g/ha
Procedure: as §1, §2, §3
Zea mays (ZEAMX, maize/corn, e.g. can occur as volunteer corn) cultivar “Garland”—growth stage 12 or 13
as §4, §5, §6
CAS Registry no. 166412-78-8), and is usually available from BASF. “Isononyl” in this context is thought to mean a mixture of two or more branched isomers of C9H19. […] A visual assessment of the % herbicidal damage is made 7 and 14 Days After herbicide Application (DAA) (or, in a minority of cases, 7 and 15 DAA), and the results are recorded as % visual herbicidal damage where 0%=no damage to plants and 100%=plant totally killed. *** Adjuvant system=either Adigor™ or Hexamoll DINCH™ or tris-(2-ethylhexyl) phosphate each at 0.5% v/v, and 12.5% v/v IPA (isopropyl alcohol), and 1.0% v/v AMS (ammonium sulphate); or 0.5% v/v Adigor™ and 12.5% v/v IPA (isopropyl alcohol); all percentages are final concentrations in the aqueous spray mixture. […]

[5] = system: Glycine max (GLXMA, soybean) cultivar Nikko; settings: for percentage phytotoxicity on Glycine max (GLXMA, soybean) cultivar Nikko: post-emergence
Procedure: as §1, §2, §3
Glycine max (GLXMA, soybean) cultivar “Nikko”—growth stage: 1st trifoliate
as §4, §5, §6, §7, §8, §9
The percentages of herbicidal damage/plant control, at 14 Days After herbicide Application (DAA) (or, in a minority of cases, at 15 DAA), for the Compounds tested and for some of the plants tested, were in the following percentage ranges. At least for Compounds A8 and A17, the phytotoxicity results shown herein are the average of 2 repetitions (for the grassy weeds, corn and soybean). […] Control of Zea mays (ZEAMX, Corn), a Warm-Climate (Warm-Season) Grassy Plant Zea mays (ZEAMX, maize, corn) is often present as a “volunteer” weed (“volunteer” corn) in fields where it was planted as a crop in preceding growing season(s) and where the present field crop is not corn. […]

[6] = 120 g/ha, 14 DAA, adjuvant 0.5% v/v Adigor + 12.5% v/v IPA
[7] = 14 DAA, adjuvant 0.5% v/v Adigor + 12.5% v/v IPA
[8] = 120 g/ha, 14 DAA (A11: 14 or 15 DAA), adjuvant 0.5% v/v Adigor + 1.0% v/v AMS + 12.5% v/v IPA
[9] = 240 g/ha, 14 DAA (A11: 14 or 15 DAA), adjuvant 0.5% v/v Adigor + 1.0% v/v AMS + 12.5% v/v IPA
[10] = 14 DAA (A11: 14 or 15 DAA), adjuvant 0.5% v/v Adigor + 1.0% v/v AMS + 12.5% v/v IPA

| SMILES | percentage phytotoxicity on Glycine max (GLXMA, soybean) cultivar TMG133 [1, 6] [%] | percentage control of (phytotoxicity on) Eleusine indica (ELEIN) [2, 7] [%] | percentage control of (phytotoxicity on) Digitaria sanguinalis (DIGSA) [3, 7] [%] | percentage control of (phytotoxicity on) Zea mays (ZEAMX, maize, corn) [4, 7] [%] | percentage phytotoxicity on Glycine max (GLXMA, soybean) cultivar Nikko [5, 6] [%] | phytotoxicity on soybean (in words) ([5]; see Biological Example 3 (soybean cultivars Nikko and TMG133)) | percentage phytotoxicity on Glycine max (GLXMA, soybean) cultivar TMG133 [1, 8] [%] | percentage phytotoxicity on Glycine max (GLXMA, soybean) cultivar TMG133 [1, 9] [%] | percentage control of Eleusine indica (ELEIN) [2, 10] [%] | percentage control of Digitaria sanguinalis (DIGSA) [3, 10] [%] | percentage control of Zea mays (ZEAMX, maize, corn) [4, 10] [%] | percentage phytotoxicity on Glycine max (GLXMA, soybean) cultivar Nikko [5, 8] [%] | percentage phytotoxicity on Glycine max (GLXMA, soybean) cultivar Nikko [5, 9] [%] |
| --- | --- | --- | --- | --- | --- | --- | --- | --- | --- | --- | --- | --- | --- |
| C#CCC1CC(=O)C(c2c(F)cc(C#CC)cc2OC)C1=O (stereo not shown) [Compound A8, 2-(2-fluoro-6-methoxy-4-prop-1-ynyl-phenyl)-4-prop-2-ynyl-cyclopentane-1,3-dione] | 17.5 | 40 | 65 | 65 | 30 | low phytotoxicity | – | – | – | – | – | – | – |
| CC#Cc1cc(F)c(C2C(=O)CC(CCSC)CC2=O)c(OC)c1 (stereo not shown) [Compound A11] | – | – | – | – | – | – | 5 | 5 | 0 | 0 | 0 | 5 | 5 |
